Laboratory results taken from patent US20240122853A1, “COMPOSITION FOR PENETRATING BLOOD-BRAIN BARRIER, CONTAINING SONOSENSITIVE LIPOSOMES AS ACTIVE INGREDIENTS” (IMGT CO, LTD., priority 2021, published 2024).

Assay: Evans blue penetration after blood-brain barrier opening by ultrasound and microbubbles
Type: in vivo, BALB/c nude mice
Experimental: To derive the optimal ultrasound conditions for opening the blood-brain barrier (BBB), the degree of opening of the blood-brain barrier was compared and analyzed using Evans blue. Evans blue is a very small dye with a molecular weight of 961 Da and is widely used for analyzing the degree of opening of the blood-brain barrier. The experiment was performed using normal BALB/c nude mice, and after injecting microbubbles via intravenous injection, ultrasound was emitted using a high-intensity focused ultrasound device, VIFU2000. […] The brain tissue was soaked in formamide, incubated overnight at 70° C. to extract Evans blue in the brain tissue, and the degree of opening of the blood-brain barrier was quantitatively analyzed by measuring the absorbance at wavelengths of 670 nm and 740 nm using UV-vis.
Factors that can affect the cavitation of ultrasound and microbubbles, a mechanism that opens the blood-brain barrier, include ultrasound conditions such as the frequency, intensity, duty cycle, and ultrasound emission time of the ultrasound, and also the number of microbubbles. Therefore, to confirm the ultrasound conditions and the number of microbubbles that can open the blood-brain barrier, the degree of opening of the blood-brain barrier according to the number of microbubbles was first quantitatively analyzed. […]

Cc1cc(-c2ccc(/N=N/c3ccc4c(S(=O)(=O)O)cc(S(=O)(=O)O)c(N)c4c3O)c(C)c2)ccc1/N=N/c1ccc2c(S(=O)(=O)O)cc(S(=O)(=O)O)c(N)c2c1O [Evans blue]
Penetration efficiency into brain depending on number of microbubbles (1 MHz, 1 W, DC 5%, PRF 1 Hz, 60 s, 2, 5, 10 × 10^6/g microbubbles, brain 24 hours later): improving the penetration efficiency of Evans blue
Penetration effect into brain depending on ultrasound intensity and emission time (microbubbles 5×10^6/g, 1-3 W, duty cycle 1-10%, 60-180 s): increased proportionally
